{"source": "PubChem BioAssay AID1259407", "about": "(Chemical Carcinogenesis Research Information System (CCRIS), 2018)", "system": "CCRIS mutagenicity, Ames/micronucleus/aberration tests", "experiment": "CCRIS mutagenicity studies", "key": {"[1]": {"details": "Test System: AMES SALMONELLA TYPHIMURIUM, Strain/Indicator: TA98, Metabolic Activation: NONE, Method: STANDARD PLATE"}, "[2]": {"details": "Test System: AMES SALMONELLA TYPHIMURIUM, Strain/Indicator: TA100, Metabolic Activation: NONE, Method: STANDARD PLATE"}}, "note": "Activity calls are given as the source filed them. No rule for the calls is given here.", "data": [{"smiles": "O=[N+]([O-])O", "values": [{"measurement": "mutagenic call", "setting": "Test System: AMES SALMONELLA TYPHIMURIUM, Strain/Indicator: TA97, Metabolic Activation: NONE, Method: PREINCUBATION", "result": "inactive; negative"}, {"measurement": "mutagenic call", "setting": "Test System: AMES SALMONELLA TYPHIMURIUM, Strain/Indicator: TA97, Metabolic Activation: S-9, Method: PREINCUBATION", "result": "inactive; negative"}, {"measurement": "mutagenic call", "setting": "Test System: AMES SALMONELLA TYPHIMURIUM, Strain/Indicator: TA97A, Metabolic Activation: NONE, Method: PREINCUBATION", "result": "inactive; negative"}, {"measurement": "mutagenic call", "setting": "Test System: AMES SALMONELLA TYPHIMURIUM, Strain/Indicator: TA97A, Metabolic Activation: NONE, Method: STANDARD PLATE", "result": "inactive; negative"}, {"measurement": "mutagenic call", "setting": "Test System: AMES SALMONELLA TYPHIMURIUM, Strain/Indicator: TA97A, Metabolic Activation: RAT, LIVER, S-9, PHENOBARBITAL AND BETA-NAPHTHOFLAVONE, Method: PREINCUBATION", "result": "inactive; negative"}, {"measurement": "mutagenic call", "setting": "Test System: AMES SALMONELLA TYPHIMURIUM, Strain/Indicator: TA97A, Metabolic Activation: RAT, LIVER, S-9, PHENOBARBITAL AND BETA-NAPHTHOFLAVONE, Method: STANDARD PLATE", "result": "inactive; negative"}, {"measurement": "mutagenic call", "setting": "[1]", "result": "inactive; negative"}, {"measurement": "mutagenic call", "setting": "Test System: AMES SALMONELLA TYPHIMURIUM, Strain/Indicator: TA98, Metabolic Activation: RAT, LIVER, S-9, AROCLOR 1254, Method: STANDARD PLATE", "result": "inactive; negative"}, {"measurement": "mutagenic call", "setting": "Test System: AMES SALMONELLA TYPHIMURIUM, Strain/Indicator: TA98, Metabolic Activation: RAT, LIVER, S-9, PHENOBARBITAL AND BETA-NAPHTHOFLAVONE, Method: PREINCUBATION", "result": "inactive; negative"}, {"measurement": "mutagenic call", "setting": "Test System: AMES SALMONELLA TYPHIMURIUM, Strain/Indicator: TA98, Metabolic Activation: RAT, LIVER, S-9, PHENOBARBITAL AND BETA-NAPHTHOFLAVONE, Method: STANDARD PLATE", "result": "inactive; negative"}, {"measurement": "mutagenic call", "setting": "[2]", "result": "inactive; negative"}, {"measurement": "mutagenic call", "setting": "Test System: AMES SALMONELLA TYPHIMURIUM, Strain/Indicator: TA100, Metabolic Activation: RAT, LIVER, S-9, AROCLOR 1254, Method: STANDARD PLATE", "result": "inactive; negative"}, {"measurement": "mutagenic call", "setting": "Test System: AMES SALMONELLA TYPHIMURIUM, Strain/Indicator: TA100, Metabolic Activation: RAT, LIVER, S-9, PHENOBARBITAL AND BETA-NAPHTHOFLAVONE, Method: PREINCUBATION", "result": "inactive; negative"}, {"measurement": "mutagenic call", "setting": "Test System: AMES SALMONELLA TYPHIMURIUM, Strain/Indicator: TA100, Metabolic Activation: RAT, LIVER, S-9, PHENOBARBITAL AND BETA-NAPHTHOFLAVONE, Method: STANDARD PLATE", "result": "inactive; negative"}, {"measurement": "mutagenic call", "setting": "Test System: AMES SALMONELLA TYPHIMURIUM, Strain/Indicator: TA102, Metabolic Activation: NONE, Method: PREINCUBATION", "result": "inactive; negative"}, {"measurement": "mutagenic call", "setting": "Test System: AMES SALMONELLA TYPHIMURIUM, Strain/Indicator: TA102, Metabolic Activation: S-9, Method: PREINCUBATION", "result": "inactive; negative"}, {"measurement": "mutagenic call", "setting": "Test System: AMES SALMONELLA TYPHIMURIUM, Strain/Indicator: TA102C, Metabolic Activation: NONE, Method: PREINCUBATION", "result": "inactive; negative"}, {"measurement": "mutagenic call", "setting": "Test System: AMES SALMONELLA TYPHIMURIUM, Strain/Indicator: TA102C, Metabolic Activation: NONE, Method: STANDARD PLATE", "result": "inactive; negative"}, {"measurement": "mutagenic call", "setting": "Test System: AMES SALMONELLA TYPHIMURIUM, Strain/Indicator: TA102C, Metabolic Activation: RAT, LIVER, S-9, PHENOBARBITAL AND BETA-NAPHTHOFLAVONE, Method: PREINCUBATION", "result": "inactive; negative"}, {"measurement": "mutagenic call", "setting": "Test System: AMES SALMONELLA TYPHIMURIUM, Strain/Indicator: TA102C, Metabolic Activation: RAT, LIVER, S-9, PHENOBARBITAL AND BETA-NAPHTHOFLAVONE, Method: STANDARD PLATE", "result": "inactive; negative"}, {"measurement": "mutagenic call", "setting": "Test System: AMES SALMONELLA TYPHIMURIUM, Strain/Indicator: TA1535, Metabolic Activation: NONE, Method: PREINCUBATION", "result": "inactive; negative"}, {"measurement": "mutagenic call", "setting": "Test System: AMES SALMONELLA TYPHIMURIUM, Strain/Indicator: TA1535, Metabolic Activation: NONE, Method: STANDARD PLATE", "result": "inactive; negative"}, {"measurement": "mutagenic call", "setting": "Test System: AMES SALMONELLA TYPHIMURIUM, Strain/Indicator: TA1535, Metabolic Activation: RAT, LIVER, S-9, AROCLOR 1254, Method: STANDARD PLATE", "result": "inactive; negative"}, {"measurement": "mutagenic call", "setting": "Test System: AMES SALMONELLA TYPHIMURIUM, Strain/Indicator: TA1535, Metabolic Activation: RAT, LIVER, S-9, PHENOBARBITAL AND BETA-NAPHTHOFLAVONE, Method: PREINCUBATION", "result": "inactive; negative"}, {"measurement": "mutagenic call", "setting": "Test System: AMES SALMONELLA TYPHIMURIUM, Strain/Indicator: TA1535, Metabolic Activation: RAT, LIVER, S-9, PHENOBARBITAL AND BETA-NAPHTHOFLAVONE, Method: STANDARD PLATE", "result": "inactive; negative"}, {"measurement": "mutagenic call", "setting": "Test System: AMES SALMONELLA TYPHIMURIUM, Strain/Indicator: TA1537, Metabolic Activation: NONE, Method: PREINCUBATION", "result": "inactive; negative"}, {"measurement": "mutagenic call", "setting": "Test System: AMES SALMONELLA TYPHIMURIUM, Strain/Indicator: TA1537, Metabolic Activation: NONE, Method: STANDARD PLATE", "result": "inactive; negative"}, {"measurement": "mutagenic call", "setting": "Test System: AMES SALMONELLA TYPHIMURIUM, Strain/Indicator: TA1537, Metabolic Activation: RAT, LIVER, S-9, AROCLOR 1254, Method: STANDARD PLATE", "result": "inactive; negative"}, {"measurement": "mutagenic call", "setting": "Test System: AMES SALMONELLA TYPHIMURIUM, Strain/Indicator: TA1537, Metabolic Activation: RAT, LIVER, S-9, PHENOBARBITAL AND BETA-NAPHTHOFLAVONE, Method: PREINCUBATION", "result": "inactive; negative"}, {"measurement": "mutagenic call", "setting": "Test System: AMES SALMONELLA TYPHIMURIUM, Strain/Indicator: TA1537, Metabolic Activation: RAT, LIVER, S-9, PHENOBARBITAL AND BETA-NAPHTHOFLAVONE, Method: STANDARD PLATE", "result": "inactive; negative"}, {"measurement": "mutagenic call", "setting": "Test System: AMES SALMONELLA TYPHIMURIUM, Strain/Indicator: TA1538, Metabolic Activation: NONE, Method: PREINCUBATION", "result": "inactive; negative"}, {"measurement": "mutagenic call", "setting": "Test System: AMES SALMONELLA TYPHIMURIUM, Strain/Indicator: TA1538, Metabolic Activation: NONE, Method: STANDARD PLATE", "result": "inactive; negative"}, {"measurement": "mutagenic call", "setting": "Test System: AMES SALMONELLA TYPHIMURIUM, Strain/Indicator: TA1538, Metabolic Activation: RAT, LIVER, S-9, AROCLOR 1254, Method: STANDARD PLATE", "result": "inactive; negative"}, {"measurement": "mutagenic call", "setting": "Test System: AMES SALMONELLA TYPHIMURIUM, Strain/Indicator: TA1538, Metabolic Activation: RAT, LIVER, S-9, PHENOBARBITAL AND BETA-NAPHTHOFLAVONE, Method: PREINCUBATION", "result": "inactive; negative"}, {"measurement": "mutagenic call", "setting": "Test System: AMES SALMONELLA TYPHIMURIUM, Strain/Indicator: TA1538, Metabolic Activation: RAT, LIVER, S-9, PHENOBARBITAL AND BETA-NAPHTHOFLAVONE, Method: STANDARD PLATE", "result": "inactive; negative"}, {"measurement": "mutagenic call", "setting": "Test System: E. COLI, Strain/Indicator: WP2, Metabolic Activation: NONE, Method: STANDARD PLATE", "result": "inactive; negative"}, {"measurement": "mutagenic call", "setting": "Test System: E. COLI, Strain/Indicator: WP2, Metabolic Activation: RAT, LIVER, S-9, AROCLOR 1254, Method: STANDARD PLATE", "result": "inactive; negative"}]}, {"smiles": "Cn1c2ccccc2c2cc(N)ccc21", "values": [{"measurement": "mutagenic call", "setting": "[1]", "result": "active; positive"}, {"measurement": "mutagenic call", "setting": "Test System: AMES SALMONELLA TYPHIMURIUM, Strain/Indicator: TA98, Metabolic Activation: RAT LIVER S-9, AROCLOR 1254, Method: STANDARD PLATE", "result": "active; positive"}, {"measurement": "mutagenic call", "setting": "[2]", "result": "active; positive"}, {"measurement": "mutagenic call", "setting": "Test System: AMES SALMONELLA TYPHIMURIUM, Strain/Indicator: TA100, Metabolic Activation: RAT LIVER S-9, AROCLOR 1254, Method: STANDARD PLATE", "result": "active; positive"}]}]}
